# Where “and” joins values, the source holds several entries; their conditions need not be identical. Identical values can stand only once. Like-named read-outs stand apart in the source and are kept apart here.
# How the values were obtained:
# [1] = tested on: serotonin 5-HT1 receptors; settings: Rickli et al., 2016; cited from earlier work
# [2] = biological target: D2 receptors (Homo sapiens, UniProt P14416); settings: cited from earlier work
# [3] = tested on: D1-3 receptors; settings: Rickli et al., 2016; cited from earlier work
# [4] = tested on: healthy human subjects; settings: two subjects; FIGS. 12, 13
# [5] = biological target: 5-HT transporter (SERT) (Homo sapiens, UniProt P31645); settings: Rickli et al., 2016; cited from earlier work
# Chain of 5-HT transporter (SERT) (P31645 whole entry, species assumed): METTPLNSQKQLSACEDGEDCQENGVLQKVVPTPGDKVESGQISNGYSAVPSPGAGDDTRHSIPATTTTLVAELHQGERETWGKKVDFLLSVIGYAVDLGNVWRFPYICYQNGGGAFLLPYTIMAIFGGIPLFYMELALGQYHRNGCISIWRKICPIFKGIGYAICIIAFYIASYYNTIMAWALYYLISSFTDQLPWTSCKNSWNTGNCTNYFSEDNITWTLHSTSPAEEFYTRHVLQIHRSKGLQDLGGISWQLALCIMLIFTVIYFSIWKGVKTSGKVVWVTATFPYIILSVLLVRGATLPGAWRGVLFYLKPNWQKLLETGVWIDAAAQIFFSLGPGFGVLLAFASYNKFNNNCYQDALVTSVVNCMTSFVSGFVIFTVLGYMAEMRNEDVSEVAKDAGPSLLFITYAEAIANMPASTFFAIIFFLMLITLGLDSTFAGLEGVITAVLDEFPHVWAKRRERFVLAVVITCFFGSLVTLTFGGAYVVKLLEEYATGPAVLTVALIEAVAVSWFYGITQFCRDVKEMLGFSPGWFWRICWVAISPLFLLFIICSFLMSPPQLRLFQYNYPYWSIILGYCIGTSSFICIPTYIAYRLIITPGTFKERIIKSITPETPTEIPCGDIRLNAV
# [6] = biological target: 5-HT2A receptor (Homo sapiens, UniProt P28223); settings: Rickli et al., 2016; cited from earlier work
# Chain of 5-HT2A receptor (P28223 whole entry): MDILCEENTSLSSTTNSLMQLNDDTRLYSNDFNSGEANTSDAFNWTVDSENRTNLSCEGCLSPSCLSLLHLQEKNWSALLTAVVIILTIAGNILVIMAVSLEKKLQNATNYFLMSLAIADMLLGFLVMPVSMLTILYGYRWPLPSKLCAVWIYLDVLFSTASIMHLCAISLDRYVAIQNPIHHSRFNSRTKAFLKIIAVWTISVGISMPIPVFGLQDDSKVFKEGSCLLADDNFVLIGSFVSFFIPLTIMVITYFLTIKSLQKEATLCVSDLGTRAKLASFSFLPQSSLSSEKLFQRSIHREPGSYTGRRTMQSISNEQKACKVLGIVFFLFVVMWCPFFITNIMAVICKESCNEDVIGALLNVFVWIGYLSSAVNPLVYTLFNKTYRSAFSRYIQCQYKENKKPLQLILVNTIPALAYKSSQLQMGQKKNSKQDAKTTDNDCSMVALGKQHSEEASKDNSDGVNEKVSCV
# [7] = tested on: healthy human subjects; experiment: Adverse effects, list of complaints (LC) score, LSD-MDMA clinical study; settings: 0.1 mg LSD, 100 mg MDMA or both; mean of two subjects; placebo 5
# [8] = tested on: healthy human subjects; experiment: Subjective effects Visual Analog Scales (VAS), LSD-MDMA clinical study; settings: for peak subjective effects ratings of any drug effect (VAS): oral, mean of two healthy subjects; for bad drug effects (VAS): FIG. 3A; for ratings of being talkative (VAS): FIG. 8A; for wanting to be alone / with other people (VAS): FIGS. 10A and 10B
# [9] = tested on: healthy humans; settings: cited from earlier work
# [10] = tested on: humans; settings: cited from earlier work
# [11] = 0.1 mg LSD, 100 mg MDMA or both, FIG. 2A
# [12] = 0.1 mg LSD, 100 mg MDMA or both, two subjects
# [13] = oral administration (Vizeli et al., 2017)
# Chain of D2 receptors (P14416 whole entry): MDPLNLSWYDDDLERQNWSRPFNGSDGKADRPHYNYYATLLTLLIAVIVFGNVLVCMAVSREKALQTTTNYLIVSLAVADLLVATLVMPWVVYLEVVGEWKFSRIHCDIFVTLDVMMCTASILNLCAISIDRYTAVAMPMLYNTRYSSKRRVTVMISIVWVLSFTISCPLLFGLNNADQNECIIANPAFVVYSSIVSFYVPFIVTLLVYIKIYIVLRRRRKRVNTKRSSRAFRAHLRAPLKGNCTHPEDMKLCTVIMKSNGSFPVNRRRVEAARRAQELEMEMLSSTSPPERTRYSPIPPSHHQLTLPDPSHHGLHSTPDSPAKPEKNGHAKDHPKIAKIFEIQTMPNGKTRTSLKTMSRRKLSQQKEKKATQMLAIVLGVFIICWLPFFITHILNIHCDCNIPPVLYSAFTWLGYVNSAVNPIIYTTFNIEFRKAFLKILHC
smiles,measurement,setting,value
COc1cc(CCN)cc(OC)c1OC [mescaline],agonist potency at serotonin 5-HT1 receptors,[1],low potency
same,affinity for D2 receptors,[2],no affinity
"CCN(CC)C(=O)[C@@H]1C=C2c3cccc4[nH]cc(c34)C[C@H]2N(C)C1 [LSD, lysergic acid diethylamide]",stimulation of D1-3 receptors,[3],stimulates D1-3 receptors
same,alterations of consciousness on the 5D-ASC main and subscales,[4],comparable degrees of alterations of consciousness
same,interaction with the SERT,[5],does not interact with the SERT
same,stimulation of the 5-HT2A receptor,[6],potently stimulates
same,Total average LC scores,[7],18
same,peak subjective effects ratings of any drug effect (VAS),[8]; [11],comparable peak subjective effects ratings
same,duration of any drug effect (VAS),"[8]; 0.1 mg LSD, 100 mg MDMA or both, two subjects, FIG. 2A",lasted longer than those of MDMA
same,good drug effects duration (VAS),"[8]; 0.1 mg LSD, 100 mg MDMA or both, two subjects, FIG. 2B",lasted longer
same,bad drug effects (VAS),[8]; [12],minor subjective bad drug effects
same,anxiety (VAS),"[8]; 0.1 mg LSD, 100 mg MDMA or both, two subjects, FIG. 3B",moderate anxiety at drug effect onset
same,nausea (VAS),"[8]; 0.1 mg LSD, two subjects, FIG. 4B",moderate nausea at drug effect onset
same,ratings of openness (VAS),[8]; two subjects,lower increases in openness
same,changes in visual perception (VAS),"[8]; two subjects, FIG. 5A",comparable changes in visual perception
same,synaesthesias (sounds influencing visual perception) (VAS),"[8]; two subjects, FIG. 5B",comparable changes
same,changes in the perception of time (VAS),"[8]; two subjects, FIG. 6A",comparable changes in the perception of time
same,ratings of being talkative (VAS),[8]; two subjects,reduces talkative
same,degree of intro or extroversion (VAS),"[8]; two subjects, FIG. 11",no effect
same,wanting to be alone / with other people (VAS),[8]; two subjects,wanted to be with others and not alone
same,agonist potency at serotonin 5-HT1 receptors,[1],potent agonists
same,"time of onset of the subjective response, any drug effect VAS (mean±SD)","[9]; 0.1 mg LSD (Holze et al., 2019a), range 0.3-1.0",0.7 ± 0.2 h
same,duration of subjective effects (mean±SD),"[9]; 0.1 mg LSD (Holze et al., 2019a), range 5.3-12.8",8.5 ± 2.0 h
same,"time of offset of the subjective response, any drug effect VAS (mean±SD)","[9]; 0.1 mg LSD (Holze et al., 2019a), range 6.0-13.2",9.1 ± 2.0 h
same,subjects with bad drug effects (50% or more on a 0-100% scale at any time point),"[9]; 0.1 mg LSD, 3 of 24 subjects (Dolder et al., 2017)",12.5%
same,subjects with transient bad drug effects,"[9]; 0.1 mg LSD, 7 of 24 subjects (Holze et al., 2019a)",29%
same,duration of LSD effects,"[9]; 0.1 mg dose (Dolder et al., 2017), range 5-14",8.2 ± 2.1 h
same,subjects with bad drug effects (50% or more on a 0-100% scale at any time point),"[9]; 0.2 mg LSD, 9 of 16 subjects (Dolder et al., 2017)",56%
same,subjects with marked anxiety,"[9]; 0.2 mg LSD, sixteen healthy humans (Schmid et al., 2015)",two
same,duration of LSD effects,"[9]; 0.2 mg dose (Dolder et al., 2017), range 7-19.5",11.6 ± 1.7 h
same,subjective response to LSD compared to MDMA,"[9]; LSD 0.1 mg vs MDMA 125 mg (Holze et al., 2019b)",clearly more pronounced
same,time to the subjective peak effect,"[9]; LSD (Holze et al., 2019a), range 1.6-4.3",2.5 ± 0.6 h and 2.5 h
same,"start of LSD effect, on average",[9]; oral administration,42 min
same,time after administration at which anxiety mostly occurs (peak effects),[9]; oral dosing formulation of LSD,1 to 4 h
CN(C)CCc1c[nH]c2cccc(O)c12 [psilocin],interaction with the SERT,[5],inhibits the 5-HT transporter
same,agonist potency at serotonin 5-HT1 receptors,[1],potent agonists
"CNC(C)Cc1ccc2c(c1)OCO2 (stereo not shown) [MDMA, 3,4-methylenedioxymethamphetamine]",Total average LC scores,[7],12
same,duration of the subjective effect,"[10]; MDMA (Vizeli et al., 2017)",4.2 ± 1.3 h
same,onset of the MDMA effect (mean±SD),[10]; [13],33 ± 24 min and 33 min
same,time to peak effect after MDMA administration,[10]; [13],1.6 ± 0.8 h and 1.6 h
same,peak subjective effects ratings of any drug effect (VAS),[8]; [11],comparable peak subjective effects ratings
same,bad drug effects (VAS),[8]; [12],moderately increased subjective bad drug effect ratings
same,ratings of openness (VAS),[8]; two subjects,increases ratings of openness
same,ratings of being talkative (VAS),[8]; two subjects,increases ratings of being talkative
same,ratings of trust (VAS),"[8]; two subjects, FIG. 9A",increases feelings of trust
same,wanting to be alone / with other people (VAS),[8]; two subjects,wanted to be with others and not alone

# Source: patent publication US11963946B2, “MDMA treatment to enhance acute emotional effects profile of LSD, psilocybin, or other psychedelics” (Universitätsspital Basel, priority 2020, dated 2024)
